For experiment [1], the system named is HeLa. Briefly: Cytotoxicity against human HeLa cells. The experiment is classed as functional, cell-based.
The subject of experiment [2] is P388. Briefly: Cytotoxicity against mouse P388 cells. It counts as functional, cell-based.
The subject of experiment [3] is Trichophyton mentagrophytes. Briefly: Antifungal activity against Trichophyton mentagrophytes at 30 ug/disk. The experiment is classed as functional. To be noted: read-out: IZ.
In experiment [4] the test system is Amorphotheca resinae. Briefly: Antifungal activity against Cladosporium resinae at 15 ug/disk. It counts as functional. Particulars: read-out: IZ.
For experiment [5], the system named is Bacillus subtilis. Briefly: Antibacterial activity against Bacillus subtilis at 15 ug/disk. Particulars: read-out: IZ. It counts as functional.

In brackets after ≈: the same amount, converted by molar mass.

With `C/C1=C\[C@@H](C)C/C=C/[C@H]2[C@@H]3O[C@]3(C)[C@@H](C)[C@H]3[C@H](Cc4c[nH]c5ccccc45)NC(=O)[C@]32C(=O)CC[C@H](O)C1=O` [CHAETOGLOBOSIN F], the concentration for half-maximal inhibition (IC50) – broadly, the concentration at which inhibition is half-maximal – in experiment [1] was found to be 3.2 µg/mL (≈ 6.03 µM).

In the case of `C/C1=C\[C@@H](C)C/C=C/[C@H]2[C@H](O)[C@](C)(O)[C@@H](C)[C@H]3[C@H](Cc4c[nH]c5ccccc45)NC(=O)[C@]32C(=O)/C=C/C(=O)[C@@H]1O` [CHAETOGLOBOSIN Q], the IC50 in experiment [2] is 2.19 µg/mL (≈ 4.01 µM).

In the case of `C/C1=C\[C@@H](C)C/C=C/[C@H]2[C@@H]3O[C@]3(C)[C@@H](C)[C@H]3[C@H](Cc4c[nH]c5ccccc45)NC(=O)[C@]32C(=O)CCC(=O)C1=O` [CHAETOGLOBOSIN C], in experiment [1], the IC50 worked out at 3.2 µg/mL (≈ 6.05 µM).

Turning to `CC1=C[C@@H]2/C=C/C[C@H](C)/C=C(\C)CC/C=C/C(=O)[C@]23C(=O)N[C@@H](Cc2c[nH]c4ccccc24)[C@@H]3[C@@H]1C` [PROCHEATOGLOBOSIN I], the zone of inhibition at 30 µg/disc in experiment [3] amounted to 2 mm. The molecule further came in with an IC50 in experiment [2] of 3.99 µg/mL (≈ 8.27 µM).

As for `CC1=C[C@@H]2/C=C/C[C@H](C)/C=C(\C)CC(=O)/C=C/C(=O)[C@]23C(=O)N[C@@H](Cc2c[nH]c4ccccc24)[C@@H]3[C@@H]1C` [PROCHEATOGLOBOSIN II], the zone of inhibition at 30 µg/disc in experiment [3] worked out at 2 mm. Besides, in experiment [2], the IC50 worked out at 3.99 µg/mL (≈ 8.03 µM).

With `CC1=C(C)[C@H]2[C@H](Cc3c[nH]c4ccccc34)NC(=O)[C@]23C(=O)CC[C@H](O)C(=O)/C(C)=C/[C@@H](C)C/C=C/[C@H]3[C@@H]1O` [CHAETOGLOBOSIN E], the IC50 in experiment [1] was found to be 3.2 µg/mL (≈ 6.03 µM).

`CC1=C[C@@H]2/C=C/C[C@H](C)/C=C(\C)[C@@H](O)C/C=C/C(=O)[C@]23C(=O)N[C@@H](Cc2c[nH]c4ccccc24)[C@@H]3[C@@H]1C` [CHEATOGLOBOSIN T] registered a half-inhibitory concentration (IC50) in experiment [2] of 1.58 µg/mL (≈ 3.17 µM).

On to `C/C1=C\[C@@H](C)C/C=C/[C@H]2[C@@H]3O[C@]3(C)[C@@H](C)[C@H]3[C@H](Cc4c[nH]c5ccccc45)NC(=O)[C@]32C(=O)/C=C/C(=O)[C@@H]1O` [CHAETOGLOBOSIN A], for which the results for the zone of inhibition at 15 µg/disc in experiment [4] and in experiment [5] were 5 mm and 3 mm, respectively. For the same molecule, the IC50 in experiment [1] was determined as 3.2 µg/mL (≈ 6.05 µM); in experiment [2], 1.94 µg/mL (≈ 3.67 µM).

Turning to `CC1=C[C@@H]2/C=C/C[C@H](C)/C=C(\C)[C@@H](O)C(=O)/C=C/C(=O)[C@]23C(=O)N[C@@H](Cc2c[nH]c4ccccc24)[C@@H]3[C@@H]1C` [CHEATOGLOBOSIN J], the IC50 came to 3.2 µg/mL (≈ 6.24 µM) in experiment [1] and 2.47 µg/mL (≈ 4.82 µM) in experiment [2]. Besides, the zone of inhibition at 15 µg/disc in experiment [5] is 2 mm.

Regarding `CC1=C(C)[C@H]2[C@H](Cc3c[nH]c4ccccc34)NC(=O)[C@]23C(=O)/C=C/C(=O)[C@H](O)/C(C)=C/[C@@H](C)C/C=C/[C@H]3[C@@H]1O` [CHEATOGLOBOSIN B], the IC50 in experiment [1] amounted to 3.2 µg/mL (≈ 6.05 µM); in experiment [2], 3.45 µg/mL (≈ 6.53 µM). Moreover, the zone of inhibition at 15 µg/disc in experiment [5] was found to be 1 mm.

For `C=C1[C@@H](C)[C@H]2[C@H](Cc3c[nH]c4ccccc34)NC(=O)[C@]23C(=O)/C=C/C(=O)[C@H](O)/C(C)=C/[C@@H](C)C/C=C/[C@H]3[C@@H]1O` [CHEATOGLOBOSIN D], the IC50 worked out at 3.2 µg/mL (≈ 6.05 µM) in experiment [1] and 4.92 µg/mL (≈ 9.31 µM) in experiment [2]. Further, the zone of inhibition at 15 µg/disc in experiment [5] was 3 mm.

`CC1=C(C)[C@H]2[C@H](Cc3c[nH]c4ccccc34)NC(=O)[C@]23C(=O)CCC(=O)C(=O)/C(C)=C/[C@@H](C)C/C=C/[C@H]3[C@@H]1O` [CHEATOGLOBOSIN G] came in with an IC50 in experiment [1] of 3.2 µg/mL (≈ 6.05 µM).

The values above are taken from ChEMBL document CHEMBL1148925, “Chaetoglobosins Q, R, and T, three further new metabolites from Chaetomium globosum” (J Nat Prod, 2004).
